According to patent publication US5466829A, “Ginkgolide derivatives and a process for preparing them” (priority 1991, dated 1995):
Where two headings read alike, the source gives them in different places.

Test system: Platelet Activating Factor induced platelet aggregation
Experiment: Platelet aggregation inhibiting effect of rabbit by PAF (platelet rich plasma, Chrono-log aggregometer)
Format: cell-based, New Zealand White Rabbit
Settings: for IC50: read-out: IC50, 50% of the inhibition concentration, platelet aggregation inhibiting effect; for platelet aggregation inhibiting activity compared with Ginkgolide B: rabbit PRP, PAF-induced, comparison in words
Experimental: The blood gathering in the ear artery of the New Zealand White Rabbit of weight 3~3.5 kg was mixed with 3.8% sodium citrate solution at the ratio of 1:9. After centrifuging for 10 minutes at 1000 rpm, the upper Platelet Rich Plasma(PRP) layer was taken. Again after centrifuging for 10 minutes at 3000 rpm, the upper Platelet Poor Plasma(PPP) was taken.
After measuring the platelet figures of the PRP using the Coulter counter, the platelet figures was adjusted to 3×10^5 /μl by diluting with PPP.
The ginkgolide derivatives which were obtained from the above example 1 and 5~9 was investigated platelet aggregation inhibiting effect by that 270 μl of PRP and 30 μl of the derivative solution was treated using the Chrono-log aggregometer which the light tansmittance of PPP was fixed to 100% and the light tansmittance of PRP was fixed to 0% and then 30 μl of Platelet Activating Factor of 5×10^-9 M and 5×10^-8 M concentration was added.
Then, IC50, 50% of the inhibition concentration, of derivatives was searched.

[1] = rabbit PRP adjusted to 3×10^5 /μl platelets, aggregation induced by PAF of 5×10^-9 M and 5×10^-8 M
[2] = Oryctolagus cuniculus, Platelet
[3] = Oryctolagus cuniculus, Platelet, rabbit PRP adjusted to 3×10^5 /μl platelets, aggregation induced by PAF of 5×10^-9 M and 5×10^-8 M

| Molecule | IC50 [1] [nM] | platelet aggregation inhibiting activity compared with Ginkgolide B | IC50 [2] [nM] | IC50 [3] [nM] |
| --- | --- | --- | --- | --- |
| 3-dehydroxy- 1,10-methylenedioxy-Ginkgolide B [formula (IV)] | 4950 | low than the Ginkgolide B in its activity | – | – |
| 3-dihydroxy-1,10-methylenedioxy-14-epi-Ginkgolide B [formula (III)] | 6980 | low than the Ginkgolide B in its activity | – | – |
| C[C@@H]1C(=O)O[C@H]2C[C@@]34[C@H]5C[C@@H](C(C)(C)C)[C@]36[C@@H](OC(=O)[C@@H]6O)O[C@@]4(C(=O)O5)[C@]21O [Ginkgolide A, reference compound] | – | – | 1750 | – |
| CC1C(=O)OC2C(O)C34C5CC(C(C)(C)C)C36C(OC(=O)C6O)OC4(C(=O)O5)C12O (centres unmarked) [Ginkgolide B, reference compound] | – | – | – | 427 |
| C[C@@H]1C(=O)OC2C1C13OC4OC(=O)C(O)C45C(C(C)(C)C)CC(OC1=O)C35C2O (some centres unmarked) [formula (I-a), 3-dehydroxy-Ginkgolide B] | – | low than the Ginkgolide B in its activity | 2640 | – |
| C[C@H]1C(=O)OC2C1C13OC4OC(=O)C(O)C45C(C(C)(C)C)CC(OC1=O)C35C2O (stereo partly drawn) [formula (I-b), 3-dehydroxy-14-epi-Ginkgolide B] | – | – | 13000 | – |
| C[C@@H]1C(=O)OC2C3OCOC4C(=O)OC5OC6(C(=O)OC7CC(C(C)(C)C)C54C736)C21O (some centres unmarked) [formula (II), 1,10-methylenedioxy-Ginkgolide B] | – | low than the Ginkgolide B in its activity | – | 1050 |
